From patent US9822414B2, “In vitro method for predicting in vivo genotoxicity of chemical compounds” (priority 2011, dated 2017)
Values joined by “and” are separate entries in the source; they are usually repeats but may differ in a detail not shown here. Equal values may be shown once.

Legend:
[1] = system: conventional in vitro genotoxicity assays; conditions: cited from earlier work
HepG2 cell [2] = system: HepG2 cell
PWWP2B = assay: Gene expression of PWWP2B in HepG2 cells exposed to compound (microarray, log2 treatment:control ratio); format: cell-based, human
HepG2 cell [3] = assay: Class prediction of in vivo genotoxicity by the method of the invention (Ames stratification plus three-gene expression in HepG2); conditions: for Prediction (class prediction results using the method of the invention): 62 compounds, three replicates, HepG2 24 h
Salmonella typhimurium = conditions: cited from earlier work
LOC100505880 = assay: Gene expression of LOC100131914/LOC100505880 in HepG2 cells exposed to compound (microarray, log2 treatment:control ratio); format: cell-based, human
rodents = conditions: cited from earlier work; for In vivo GTX: positive when at least one in vivo assay (MN, CA) positive, equivocal considered positive
NR0B2 = assay: Gene expression of NR0B2 in HepG2 cells exposed to compound (microarray, log2 treatment:control ratio); format: cell-based, human

SMILES | In vitro GTX [1] | At least ⅔ genes +? (HepG2 cell [2]) | Average result over three measurements (HepG2 cell [2]) | Log2 treatment: control ratio PWWP2B (PWWP2B) | PWWP2B above or below the reference value (PWWP2B) | Prediction (class prediction results using the method of the invention) (HepG2 cell [3]) | Ames (Salmonella typhimurium) | LOC100505880 above or below the reference value (LOC100505880) | Standard (in vivo genotoxicity designation) (rodents) | In vivo GTX (rodents) | NR0B2 above or below the reference value (NR0B2) | Results in the conventional in vitro genotoxicity assays ([1]; see Table 5) | Classification of NGTX compounds by the method of the invention (false positives) (HepG2 cell [3]; in vivo NGTX compounds) | Log2 treatment: control ratio LOC100505880 (LOC100505880) | Log2 treatment: control ratio NR0B2 (NR0B2)
COc1cc2c(c3oc(=O)c4c(c13)CCC4=O)[C@@H]1C=CO[C@@H]1O2 [AFB1] | + | GTX | GTX | 0.098 and 0.275 and 0.088 | + (Plus sign indicates a value above the reference value) | GTX | + | + (Plus sign indicates a value above the reference value) | GTX | + | + (Plus sign indicates a value above the reference value) | – | – | – | –
COc1ccc(N)cc1 [Anis] | + | GTX | GTX | 0.013 and 0.076 and 0.253 | + (Plus sign indicates a value above the reference value) | GTX | + | + (Plus sign indicates a value above the reference value) | NGTX | – | + (Plus sign indicates a value above the reference value) | positive results | misclassification | – | –
Cc1c2ccccc2c(C)c2c1ccc1ccccc12 [DMBA] | + | – | GTX | −0.155 and 0.088 and −0.102 | – | GTX+ | + | – | GTX | + | – | – | – | 0.08 and −0.059 and −0.025 | 0.064 and −0.116 and −0.076
[NH2][Pt]([NH2])([Cl])[Cl] [cisPt] | + | GTX | GTX | 0.095 and −0.147 and −0.18 | – | GTX | + | + (Plus sign indicates a value above the reference value) | GTX | + | + (Plus sign indicates a value above the reference value) | – | – | – | –
